This is an account of results in patent US5554631A, “5-pyrrolyl-6-halogeno-2-pyridylmethylsulfinyl benzimidazole derivatives” (Il-Yang Pharm. Co., Ltd., priority 1994, dated 1996).

One series concerns ICR (male, female) mouse. Briefly: in vivo. As to conditions: for Acute toxicity (in words): clinical symptoms, death and autopsy results; for Number of animals died in day after administration: each of days 0-14. As for the experimental part:
(§1) Five weeks aged ICR (male, female) mouse were pre-bred in the breeding cage for one week and then the animals showing a smooth gain in body weight were randomly selected and used in this test. The amount to be administered to the test animals was established on the basis of the maximum dose of 5,000 mg/kg with the common ratio of 1.5.
(§2) The test compounds in a powder were suspended in 0.5% methylcellulose and administered per oral using a lml syringe. The other specific conditions for administration are described in the following.
(§3) In the above test, the control group received only 0.5% methylcellulose.
(§4) (1) Clinical symptoms and death of test animals
(§5) The clinical symptoms and death of test animals caused by the test compounds were recorded immediately after administration of the test compounds and during the overall test period.

The next series is described as follows: in vivo. Particulars: mouse, in vivo, po. How it is done: as §1, §2, §3, §4, §5
The subject of series [1] is proton pump of H^+, K^+ -ATPase. As to conditions: background art; cited from earlier work.
Another series concerns acidity. As to the kind of experiment: Inhibition of acidity (total acid output), Shay method. In kind it is in vivo, SD male rats. Particulars: 5 h; for Volume (inhibition of acidity) / Inhibition rate, acidity: intraduodenal, rat; for Inhibition rate, acidity: vs normal group; for ED50: Rattus norvegicus. As for the experimental part: (§6) The specific test methods are as follows.
(§7) SD male rats (200±20 g) were fasted for 24 hours, except for water, and then anesthesized with ether. The abdomen of rats was incised and then the pylorus was ligated. The test compounds were suspended or dissolved in […] (carboxymethylcellulose) and injected into duodenum. After the abdomen was suctured, the rats were allowed to stand for 5 hours and then sacrificed with ether. The stomach was removed from rats and the gastric juices were collected. The gastric juice was centrifuged with 10,000×g for 10 minutes at 4° C. to remove the precipitate. The amount of gastric juice and acidity were determined using pH 7.0 end point assay with 0.02N NaOH and then the total acid output was calculated.

For another series, the system named is gastric juice secretion. Briefly: Inhibition of gastric juice secretion, Shay method. The format is in vivo, SD male rats. Particulars: 5 h; for Gastric juice volume / Inhibition rate, gastric juice secretion: intraduodenal, rat; for Inhibition rate, gastric juice secretion: vs normal group; for ED50: Rattus norvegicus. As for the experimental part: as §6, §7

The next series concerns the target T1, H^+ /K^+ -ATPase (Oryctolagus cuniculus, UniProt P27112).
T1 construct: The gastric mucous membrane was removed from rabbit; from tissue; host or cells: rabbit gastric mucosa, microsomal fraction (77,000 xg)
Briefly: Inhibition of H+/K+-ATPase enzyme activity in vitro. In kind it is biochemical, rabbit. As to conditions: rabbit gastric microsomal H+/K+-ATPase, 5 min pre-incubation at 37° C., 4 mM ATP; read-out: IC50. As for the experimental part: The gastric mucous membrane was removed from rabbit and then centrifuged with 77,000 xg using a ultracentrifuge to separate the microsomal fraction which was used as the source of H^+ /K^+ -ATPase enzyme for this test. 60 μg of H^+ /K^+ -ATPase was pre-incubated with the sample (the compound according to the present invention) for 5 minutes at 37° C. and then 4 mM ATP as the substrate and 4 mM Mg^++, 20 mM K^+ as the cofactor were added thereto. Then, the amount of inorganic phosphorus thus produced was determined using a spectrophotometer at 660 nm and converted into the amount of protein according to Lowry method. […]

Series [2] relates to gastric and duodenal ulcers. As to conditions: background art; cited from earlier work.
Series [3] has as its system gastric and duodenal ulcers. Briefly: Anti-ulcer effect / pharmacological efficacy (general statements). Particulars: in words.

Each structure is given as a SMILES string.

T1 sequence (P27112 2-1035 limits assumed): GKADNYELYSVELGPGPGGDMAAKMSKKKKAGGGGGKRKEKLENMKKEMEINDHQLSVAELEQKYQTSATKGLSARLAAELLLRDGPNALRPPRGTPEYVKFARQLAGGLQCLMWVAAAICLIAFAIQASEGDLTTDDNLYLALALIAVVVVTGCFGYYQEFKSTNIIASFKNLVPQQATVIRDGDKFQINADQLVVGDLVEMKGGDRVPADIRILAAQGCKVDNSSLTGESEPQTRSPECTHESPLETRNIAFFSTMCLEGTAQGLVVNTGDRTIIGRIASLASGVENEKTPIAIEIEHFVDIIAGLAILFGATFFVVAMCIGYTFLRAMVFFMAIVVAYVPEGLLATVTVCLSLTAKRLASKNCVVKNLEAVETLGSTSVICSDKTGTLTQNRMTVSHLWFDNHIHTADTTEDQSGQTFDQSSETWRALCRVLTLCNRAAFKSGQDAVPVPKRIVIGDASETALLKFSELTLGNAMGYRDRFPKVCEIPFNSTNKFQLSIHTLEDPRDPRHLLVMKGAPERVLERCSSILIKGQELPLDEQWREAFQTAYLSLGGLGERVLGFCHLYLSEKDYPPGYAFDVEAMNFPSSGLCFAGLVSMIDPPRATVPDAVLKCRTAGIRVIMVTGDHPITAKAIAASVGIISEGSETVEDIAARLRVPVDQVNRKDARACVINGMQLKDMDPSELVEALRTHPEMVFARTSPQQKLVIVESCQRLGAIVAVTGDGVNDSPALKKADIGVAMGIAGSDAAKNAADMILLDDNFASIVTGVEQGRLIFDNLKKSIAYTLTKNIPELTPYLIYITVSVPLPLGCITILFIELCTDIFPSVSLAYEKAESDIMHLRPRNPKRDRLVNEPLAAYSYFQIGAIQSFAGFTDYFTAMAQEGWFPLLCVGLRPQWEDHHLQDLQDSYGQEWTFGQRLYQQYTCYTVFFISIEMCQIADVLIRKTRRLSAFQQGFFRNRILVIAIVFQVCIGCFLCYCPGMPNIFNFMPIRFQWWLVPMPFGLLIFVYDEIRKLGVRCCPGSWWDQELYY
T1 sequence (P18597 whole entry partner): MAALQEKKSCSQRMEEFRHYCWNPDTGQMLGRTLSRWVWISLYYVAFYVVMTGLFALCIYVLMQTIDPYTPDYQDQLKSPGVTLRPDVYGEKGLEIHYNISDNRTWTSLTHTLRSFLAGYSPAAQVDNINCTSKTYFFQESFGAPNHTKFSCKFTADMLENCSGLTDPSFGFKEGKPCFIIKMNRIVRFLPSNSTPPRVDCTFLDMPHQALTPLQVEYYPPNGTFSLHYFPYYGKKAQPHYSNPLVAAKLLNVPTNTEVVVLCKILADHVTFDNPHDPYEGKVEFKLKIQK

What is called LD50 is the dose at which mortality reaches 50%. A high value points to lower toxicity. One may read the ED50 as the dose at which the effect has come halfway, by size or by number of responders. The low end stands for an effect at a small dose, the high end for a need for a large dose. As a reminder, the IC50 is the concentration that inhibits the measured activity by half. For the compound `COc1ccc2[nH]c([S+]([O-])Cc3ncc(C)c(OC)c3C)nc2c1` (centres unmarked) [Omeprazole, 5-methoxy-2-[[(4-methoxy-3,5-dimethyl-2-pyridinyl)methyl]sulfinyl]-1H-benzimidazole], the “Acute toxicity (in words)” value with ICR (male, female) mouse (oral, mouse) was “very low as in Omeprazole”. Besides, the LD50 is > 5,000.0 mg/kg BW in the series on ICR (male, female) mouse (female mouse, oral); > 5,000.0 mg/kg BW with ICR (male, female) mouse (male mouse, oral); over 5000 mg/kg in “in vivo”. Further, the “Number of animals died in day after administration” value stood at 0 with ICR (male, female) mouse (female mouse, oral, 987 mg/kg); 0 with ICR (male, female) mouse (female mouse, oral, 1481 mg/kg); 0 in the series with ICR (male, female) mouse (female mouse, oral, 2222 mg/kg); 0 in the series with ICR (male, female) mouse (female mouse, oral, 3333 mg/kg); 0 in the series on ICR (male, female) mouse (female mouse, oral, 5000 mg/kg); 0 in the series with ICR (male, female) mouse (male mouse, oral, 987 mg/kg). In addition, the “Number of animals died in day after administration” value was determined as 0 in the series with ICR (male, female) mouse (male mouse, oral, 1481 mg/kg); 0 with ICR (male, female) mouse (male mouse, oral, 2222 mg/kg); 0 in the series with ICR (male, female) mouse (male mouse, oral, 3333 mg/kg); 0 in the series with ICR (male, female) mouse (male mouse, oral, 5000 mg/kg). Further, the Clinical symptoms entry in the series on ICR (male, female) mouse (male and female, oral, maximum administration amount of 5,000 mg per kg) is given as “No specific abnormal clinical symptoms were observed”. Moreover, in the series with ICR (male, female) mouse (survived animals, oral), the Visual autopsy view entry is recorded as “No specific abnormal autopsy view was observed”. In addition, the Acting mechanism entry in series [1] is listed as “specific proton pump inhibitor”. The “Volume (inhibition of acidity)” value with acidity (10 mg/kg) was found to be 9.91 ± 4.20 μEq/hr. Moreover, in the series with acidity (10 mg/kg), the “Inhibition rate, acidity” value amounted to 82.89%. Besides, the ED50 in the series on acidity was determined as 3.73 mg/kg; in the series with gastric juice secretion, 8.5 mg/kg. The compound further registered a Gastric juice volume with gastric juice secretion (10 mg/kg) of 1.49 ± 0.18 ml/100 g BW. Further, the “Inhibition rate, gastric juice secretion” value in the series with gastric juice secretion (10 mg/kg) is listed as 54.29%. The IC50 at H^+ /K^+ -ATPase is about 160 µM. In addition, in series [2], the “Anti-ulcer effect over conventional H2-receptor antagonists” value is recorded as “superior effect over conventional H2 -receptor antagonists”. The “Duration compared with conventional anti-ulcer agents” value in series [2] is listed as “prolonged duration in comparison with conventional anti-ulcer agents”.

As to `COc1ccnc(C[S+]([O-])c2nc3cc(-n4cccc4)c(F)cc3[nH]2)c1C` (centres unmarked) [Compound 2, 2-[[(4-methoxy-3-methyl)-2-pyridinyl]methylsulfinyl]-5-(1H-pyrrol-1-yl)-6-fluoro-1H-benzimidazole], in the series on ICR (male, female) mouse (oral, mouse), the “Acute toxicity (in words)” value was “very low as in Omeprazole”. Besides, the “Safety (conclusion)” value in the series on ICR (male, female) mouse (mouse, in vivo) is on record as “very safe compound”. In addition, the LD50 with ICR (male, female) mouse (mouse, in vivo, po) was > 5,000.0 mg/kg BW; in “in vivo” it was over 5000 mg/kg. Moreover, the Visual autopsy view entry with ICR (male, female) mouse (mouse, in vivo, po) was “No specific abnormal autopsy view was observed”. For the same compound, the results for the “Volume (inhibition of acidity)” value with acidity (3 mg/kg), in the series on acidity (10 mg/kg) and in the series with acidity (30 mg/kg) were 34.60 ± 8.12 μEq/hr, 14.28 ± 4.28 μEq/hr and 5.72 ± 0.59 μEq/hr, respectively. Further, the “Inhibition rate, acidity” value in the series on acidity (3 mg/kg) was 40.62%; in the series on acidity (10 mg/kg) it was 75.35%; in the series with acidity (30 mg/kg), 90.13%. Moreover, the values for the ED50 in the series on acidity and in the series on gastric juice secretion were 4.04 mg/kg and 8.18 mg/kg, respectively. The “Anti-ulcer effect compared with Omeprazole” value in series [3] was “anti-ulcer effect is similar to that of Omeprazole”. The figures for the Gastric juice volume in the series with gastric juice secretion (3 mg/kg), in the series on gastric juice secretion (10 mg/kg) and in the series with gastric juice secretion (30 mg/kg) were 2.11 ± 0.36 ml/100 g BW, 1.52 ± 0.19 ml/100 g BW and 1.03 ± 0.10 ml/100 g BW, respectively. In addition, the “Inhibition rate, gastric juice secretion” value in the series on gastric juice secretion (3 mg/kg) was 35.28%; with gastric juice secretion (10 mg/kg) it was 53.37%; in the series with gastric juice secretion (30 mg/kg) it was 68.40%. Also, at H^+ /K^+ -ATPase, the IC50 is 4.1 µM.
